# Key:
# [1] = molecular target: T1, Hematopoietic prostaglandin D synthase (Homo sapiens, UniProt O60760); experiment: Binding affinity to HPGDS (unknown origin) assessed as change in melting temperature in presence of GSH by thermal shift assay
# [2] = molecular target: T1, Hematopoietic prostaglandin D synthase; experiment: Binding affinity to HPGDS (unknown origin) assessed as change in melting temperature by thermal shift assay
# [3] = molecular target: T1, Hematopoietic prostaglandin D synthase; experiment: Inhibition of HPGDS (unknown origin) by fluorescence polarization assay
# [4] = molecular target: T1, Hematopoietic prostaglandin D synthase; experiment: Inhibition of HPGDS (unknown origin) assessed as reduction in reduction in LPS-induced PGD2 level by ELISA
# [5] = molecular target: T1, Hematopoietic prostaglandin D synthase; experiment: Inhibition of HPGDS (unknown origin) assessed as reduction in reduction in GSTase activity relative to control; parameters: concentration or dose not given beside the values; conditions: concentration not given here
# [6] = Aqueous solubility of compound at pH 7.4; type: physicochemical
# [7] = molecular target: T1, Hematopoietic prostaglandin D synthase; experiment: Competitive inhibition of human HPGDS using PGH2 as substrate
# [8] = Half life in human liver microsomes; type: ADME, Microsome
# T1 sequence (O60760 whole entry): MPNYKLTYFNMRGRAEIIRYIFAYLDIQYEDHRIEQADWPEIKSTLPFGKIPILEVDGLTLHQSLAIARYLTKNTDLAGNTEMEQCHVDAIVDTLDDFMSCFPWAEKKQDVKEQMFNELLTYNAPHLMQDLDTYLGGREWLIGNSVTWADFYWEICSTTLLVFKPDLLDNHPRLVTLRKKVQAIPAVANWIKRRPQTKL
ΔTm [1] [°C],ΔTm [2] [°C],IC50 [3] [nM],IC50 [4] [nM],inhibition [5] [%],solubility [6] [µM],Ki [7] [µM],half-life [8] [min],SMILES
4.4,3.2,31.6,40.5,85.2,,,,c1ccc(-c2ccc(-c3cnc(-c4ccccc4)[nH]3)cn2)cc1
0.6,0.4,3200,,25.5,17.5,,,CC(C)(O)c1nc(-c2cccc(-c3ncc(-c4cnc(-c5ccccn5)nc4)[nH]3)c2)no1
0.6,0.2,1770,5060,18.2,,,,c1ccc(-c2ncc(-c3cnc(-c4ccccn4)nc3)[nH]2)cc1
,,,,,,5,,c1ccc(C(OC2CCN(CCCc3nnn[nH]3)CC2)c2ccccc2)cc1
2.8,0.1,80.7,453,19.2,,,,O=C(NCc1ccccc1)c1ccc(-c2ccccn2)nc1
5.2,4.3,35.4,72,83.5,,,,CC(C)(O)c1nc(-c2cccc(-c3ncc(-c4ccc(-c5ccccc5)nc4)[nH]3)c2)no1
2.8,0.1,55.5,328,47.2,,,,CC(C)(O)c1nc(-c2cccc(CNC(=O)c3ccc(-c4ccccn4)nc3)c2)no1
3,0.3,122,1230,40.4,,,,O=C(NCc1ccccc1)c1ccc(-c2ccccc2)nc1
5.7,4.9,13.2,12.5,65.1,,,,c1ccc(-c2ncc(-c3cnc(-c4cccnc4)[nH]3)cn2)cc1
4.2,0.2,7.14,35.7,71.3,,,,O=C(NCc1ccccc1)c1cnc(-c2ccccn2)nc1
5.4,4.8,78.6,23.4,76.1,,,,CC(C)(O)c1nc(-c2cccc(-c3ncc(-c4ccc(-c5ccccn5)nc4)[nH]3)c2)no1
7.1,6.9,5.88,20.7,92.1,3.3,,> 60,CC(C)(O)c1nc(-c2cccc(-c3ncc(-c4cnc(-c5ccccc5)nc4)[nH]3)c2)no1
4.5,4.3,30.8,3740,81.5,,,,Cc1nc(-c2ccccc2)[nH]c1-c1cnc(-c2ccccc2)nc1
5.1,0.5,7.48,11.6,90.9,,,,CC(C)(O)c1nc(-c2cccc(CNC(=O)c3cnc(-c4ccccn4)nc3)c2)no1
2.2,2.1,257,> 5000,29.5,,,,c1ccc(-c2ncc(-c3cnc(-c4cccnc4)s3)cn2)cc1
3.4,3.1,63.1,723,38.4,,,,Cn1c(-c2cnc(-c3ccccc3)nc2)cnc1-c1ccccc1
4.6,0.4,11.7,23.9,82.5,,,,O=C(NCc1ccccc1)c1cnc(-c2ccccc2)nc1
5.2,4.2,37.2,44.5,73.5,,,,c1ccc(-c2ncc(-c3ccc(-c4ccccn4)nc3)[nH]2)cc1
3.3,0.2,27.7,808,62.4,,,,CC(C)(O)c1nc(-c2cccc(CNC(=O)c3ccc(-c4ccccc4)nc3)c2)no1
3.8,3.6,8.88,59,94.5,,,,c1ccc(-c2ncc(-c3cnc(-c4ccccc4)[nH]3)cn2)cc1
4.95,0.4,7.18,9.86,83.9,,,,CC(C)(O)c1nc(-c2cccc(CNC(=O)c3cnc(-c4ccccc4)nc3)c2)no1

# Reference: ChEMBL document CHEMBL4715889, “Novel amide and imidazole compounds as potent hematopoietic prostaglandin D synthase inhibitors” (Bioorg Med Chem Lett, 2021)
